Laboratory results published in patent US7371780B2, “Use of calphostin C to treat drug-resistant tumor cells” (priority 2003, dated 2008).

Test system: MCF-7TAX (paclitaxel-resistant) cells
Test: Clonogenic assay, MCF-7TAX cells
Format: cell-based, human
Details: MCF-7TAX cells; 24 h drug; calphostin C light-activated 2 h
Description: The breast cancer cell line MCF-7 (lot HTB-22) was obtained from the American […] (ATCC) and maintained in Dulbecco's H21 medium (MEM) supplemented with 10% Fetal Bovine Serum (FBS) (HyClone, Logan, Utah) in a humidified atmosphere containing 5% CO2 at 37° C. To establish drug resistant cell lines, MCF-7 cells were grown in the presence of either paclitaxel or doxorubicin, beginning at a concentration 1000-fold below that required to kill 50% of the cells (the IC50). The drug concentration was increased 3-fold every two weeks (two passages), with an aliquot of the cells removed for storage in liquid nitrogen before each increase in concentration. Dose escalation continued until all cells died, after which the cells able to tolerate the highest concentration of drug were thawed for subsequent study. In this way, paclitaxel-resistant (MCF-7TAX) and doxorubicin-resistant (MCF-7DOX) cell lines were established. The IC50 for each drug was determined using a clonogenic assay as outlined below. The drug resistant cells were kept in culture in the presence of the maximally tolerated drug dose. Before each experiment, the cell lines were grown for two days in the absence of drug after which fresh medium containing either calphostin C (Sigma Laboratories, Oakville, ON), doxorubicin (Adriamycin PFS®, USP, Mississauga, ON) or paclitaxel (Taxol, Bristol-Myers Squibb, Montreal, QC) was added at the concentrations indicated.
The sensitivity of MCF-7, MCF-7TAX and MCF-7DOX cells to calphostin C, paclitaxel or doxorubicin was determined using a clonogenic assay. Briefly, 2.5×10^5 cells were seeded into 25 cm^2 tissue culture flasks in Dulbecco's H21 medium supplemented with 10% FBS. The cells were allowed to grow overnight, after which the medium was removed and replaced with medium containing varying concentrations of paclitaxel, doxorubicin, or calphostin C (after 2 hours of light exposure to activate the molecule). […] The colonies present in 5 randomly selected fields were then counted by visual inspection. […]

In the case of `COc1c(C[C@@H](C)OC(=O)Oc2ccc(O)cc2)c2c3c(C[C@@H](C)OC(=O)c4ccccc4)c(OC)c(=O)c4c(O)cc(OC)c(c5c(OC)cc(O)c(c1=O)c52)c43` [calphostin C], the IC50 is reported as 9.2 nM.
